Data taken from US7196112B2, “Cell adhesion inhibitors” (Biogen Idec MA Inc., priority 2004, dated 2007).
Values belong to the molecule of their own block, whether it stands above or below them.

Legend:
[1] = Pharmacokinetics in female Lewis rats, noncompartmental analysis; settings: rat, in vivo
Procedure: Blood samples (250 μL/bleed) were obtained at specific timepoints after administration. For compound H, blood samples were drawn at 0, 8 minutes, 15 minutes, 30 minutes, and after 1 hour, 2, 4, 6, 8, 24, 32, 48, 72 and 168 hours following i.v. administration, and 1, 2, 4, 6, 8, 24, 32, 48, and 72 hours following s.c. administration. Serum samples were analyzed for compound H levels using an electrochemiluminescence assay. PK parameters were calculated from the […] data by noncompartmental analysis. PK parameters include CMAX (maximum serum concentration), tMAX (time to achieve maximum serum concentration), CL (systemic clearance), Vss (volume of distribution at steady state), t1/2 (terminal phase half-life), and bioavailability. Area under the curve (AUC) was calculated using the trapezoidal rule. Percent bioavailability was calculated from the following equation: (AUCextravascular/AUCIV)×(DoseIV/Doseextravascular)×100. For compound R^1, blood samples were drawn and analyzed as previously described (see Leone, D. R., et al. (2003) J. Pharmacol. Exp. Ther. 305:1150–1162).
Dilutions of test samples in 50 mM HEPES pH 7.5, 100 mM NaCl, 0.1% Triton X-100, 1 mM MnCl2, 1% rat plasma, 50 ng/mL α4β1 and 0.1 μg/mL ruthenium labeled mAb B5G10 were incubated at room temperature for 20 min. 0.5 nM A-biotin was added and samples were incubated for 60 minutes at room temperature. 50 μL of a 0.5 mg/mL solution of Dynabeads M-280 Streptavidin beads (Cat No. 402–175-02, Igen, Inc., Gaithersburg, Md.) that have been prepared in assay buffer containing 8% rat plasma was added and the samples were incubated for 30 minutes at room temperature with constant mixing. 150 μL of Origen assay buffer was added and samples were analyzed in a model 1100–1000 Origen analyzer (Igen, Inc) following the manufacturer's instructions. Concentrations of compound H were interpolated from a standard curve generated with compound H that had been diluted with plasma.
The pharmacokinetic properties of compounds H and R were evaluated by noncompartmental analysis following i.v. and s.c. administration in female Lewis rats (FIG. 2). […] Compound R was rapidly cleared from circulation.

[2] = target: T1, α2β1 (Homo sapiens, UniProt P05556+P17301); test: α2β1/collagen I cell adhesion assay (K562 transfected with human α2 integrin chain); format: cell-based; settings: adhesion format, 1 mM MnCl2
T1 construct: expressed in transfected cells; host or cells: K562 cells transfected with human α2 integrin chain (gift from M. Hemler)
T1 sequence (P17301 30-1181): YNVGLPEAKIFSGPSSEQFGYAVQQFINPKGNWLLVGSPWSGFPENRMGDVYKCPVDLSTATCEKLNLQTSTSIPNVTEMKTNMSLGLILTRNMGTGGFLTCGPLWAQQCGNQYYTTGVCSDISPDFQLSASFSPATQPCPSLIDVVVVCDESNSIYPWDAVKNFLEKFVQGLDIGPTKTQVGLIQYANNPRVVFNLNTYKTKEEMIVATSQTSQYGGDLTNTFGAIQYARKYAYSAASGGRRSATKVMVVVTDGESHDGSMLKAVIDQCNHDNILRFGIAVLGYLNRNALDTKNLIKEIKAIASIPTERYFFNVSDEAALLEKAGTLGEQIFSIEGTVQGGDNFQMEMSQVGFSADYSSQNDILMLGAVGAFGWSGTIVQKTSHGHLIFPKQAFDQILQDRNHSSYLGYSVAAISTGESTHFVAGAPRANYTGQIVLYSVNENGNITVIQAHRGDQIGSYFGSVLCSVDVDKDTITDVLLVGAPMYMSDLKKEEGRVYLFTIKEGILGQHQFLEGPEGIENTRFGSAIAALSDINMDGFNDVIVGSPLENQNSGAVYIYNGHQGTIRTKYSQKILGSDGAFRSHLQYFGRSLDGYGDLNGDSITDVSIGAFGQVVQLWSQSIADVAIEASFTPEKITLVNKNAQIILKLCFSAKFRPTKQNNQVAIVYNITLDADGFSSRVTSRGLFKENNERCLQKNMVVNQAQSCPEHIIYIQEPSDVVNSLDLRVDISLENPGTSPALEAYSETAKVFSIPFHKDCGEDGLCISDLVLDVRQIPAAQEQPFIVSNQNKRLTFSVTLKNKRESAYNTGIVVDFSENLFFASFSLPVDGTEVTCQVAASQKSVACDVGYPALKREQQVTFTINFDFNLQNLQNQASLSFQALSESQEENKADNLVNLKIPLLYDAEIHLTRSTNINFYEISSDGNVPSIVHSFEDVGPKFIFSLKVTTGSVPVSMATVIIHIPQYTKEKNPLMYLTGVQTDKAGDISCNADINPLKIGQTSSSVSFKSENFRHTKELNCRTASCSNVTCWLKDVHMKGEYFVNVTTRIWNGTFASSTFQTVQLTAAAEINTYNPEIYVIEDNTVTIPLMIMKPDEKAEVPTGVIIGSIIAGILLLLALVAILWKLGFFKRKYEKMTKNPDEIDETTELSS
T1 sequence (P05556 21-798): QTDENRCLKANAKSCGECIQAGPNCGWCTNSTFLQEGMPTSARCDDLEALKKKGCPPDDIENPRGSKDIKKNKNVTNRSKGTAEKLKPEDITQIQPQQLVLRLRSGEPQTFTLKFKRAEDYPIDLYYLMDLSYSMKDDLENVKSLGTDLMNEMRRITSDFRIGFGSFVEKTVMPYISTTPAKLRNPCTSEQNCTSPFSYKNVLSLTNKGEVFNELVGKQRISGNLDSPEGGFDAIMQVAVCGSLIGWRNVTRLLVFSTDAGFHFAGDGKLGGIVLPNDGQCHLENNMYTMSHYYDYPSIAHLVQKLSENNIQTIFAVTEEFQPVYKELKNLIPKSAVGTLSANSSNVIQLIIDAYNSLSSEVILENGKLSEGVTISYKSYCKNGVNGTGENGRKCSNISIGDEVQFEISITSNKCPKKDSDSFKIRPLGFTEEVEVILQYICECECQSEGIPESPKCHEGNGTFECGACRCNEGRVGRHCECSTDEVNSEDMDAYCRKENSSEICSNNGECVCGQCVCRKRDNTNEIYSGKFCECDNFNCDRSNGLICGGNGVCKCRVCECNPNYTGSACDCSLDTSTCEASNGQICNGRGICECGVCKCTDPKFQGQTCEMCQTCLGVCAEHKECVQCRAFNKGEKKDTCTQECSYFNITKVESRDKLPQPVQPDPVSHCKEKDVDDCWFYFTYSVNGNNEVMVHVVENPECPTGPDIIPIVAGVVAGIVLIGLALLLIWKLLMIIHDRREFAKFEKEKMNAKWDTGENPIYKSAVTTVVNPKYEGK
Procedure: (§1) The ability of test compounds to block α2β1/collagen I and α1β1/collagen IV interactions were evaluated in cell adhesion assays. Collagen I and collagen IV were immobilized onto a 96-well Corning Easy Wash plate (Corning Cat. No. 25801). Human integrin-expressing cell lines (2×10^5/well) were labeled with a fluorescent compound, 2 μM BCECF-AM (Molecular Probes, Eugene, Oreg., Cat# B1150), and added with or without test compounds. After 30 minutes, the plates were washed, and bound cells quantified in a Cytofluor fluorescence plate reader. The assay buffer was TRIS-buffered saline (TBS: 24 mM TRIS, 137 mM NaCl, 2.7 mM KCl, 2 mM glucose, 0.1% BSA, pH 7.4), containing 1 mM MnCl2. The specificity of binding was controlled for using integrin specific neutralizing monoclonal antibodies. The antibodies were run at 10 μg/mL on each day of the assay and were as follows: anti-α4β1, mAb HP1/2 (Biogen); anti-α2β1, mAb 26G8 (Biogen); and α1β1, mAb AJH10 (Biogen).
(§2) The results presented in Table 3 summarize the integrin selectivity for PEGylated inhibitors. The selectivity of the PEGylated inhibitors for the four integrins indicated were tested in adhesion formats for α1β1 and α2β1, and by direct binding for α4β7. Serial dilutions of each compound were tested and IC50 values calculated from the concentration dependence of the inhibition curves. […]

[3] = target: α4β1 (Homo sapiens, UniProt P05556+P13612); test: VCAM-Ig direct binding assay (DBA), Jurkat cells
Chain of α4β1 (P13612 34-1032): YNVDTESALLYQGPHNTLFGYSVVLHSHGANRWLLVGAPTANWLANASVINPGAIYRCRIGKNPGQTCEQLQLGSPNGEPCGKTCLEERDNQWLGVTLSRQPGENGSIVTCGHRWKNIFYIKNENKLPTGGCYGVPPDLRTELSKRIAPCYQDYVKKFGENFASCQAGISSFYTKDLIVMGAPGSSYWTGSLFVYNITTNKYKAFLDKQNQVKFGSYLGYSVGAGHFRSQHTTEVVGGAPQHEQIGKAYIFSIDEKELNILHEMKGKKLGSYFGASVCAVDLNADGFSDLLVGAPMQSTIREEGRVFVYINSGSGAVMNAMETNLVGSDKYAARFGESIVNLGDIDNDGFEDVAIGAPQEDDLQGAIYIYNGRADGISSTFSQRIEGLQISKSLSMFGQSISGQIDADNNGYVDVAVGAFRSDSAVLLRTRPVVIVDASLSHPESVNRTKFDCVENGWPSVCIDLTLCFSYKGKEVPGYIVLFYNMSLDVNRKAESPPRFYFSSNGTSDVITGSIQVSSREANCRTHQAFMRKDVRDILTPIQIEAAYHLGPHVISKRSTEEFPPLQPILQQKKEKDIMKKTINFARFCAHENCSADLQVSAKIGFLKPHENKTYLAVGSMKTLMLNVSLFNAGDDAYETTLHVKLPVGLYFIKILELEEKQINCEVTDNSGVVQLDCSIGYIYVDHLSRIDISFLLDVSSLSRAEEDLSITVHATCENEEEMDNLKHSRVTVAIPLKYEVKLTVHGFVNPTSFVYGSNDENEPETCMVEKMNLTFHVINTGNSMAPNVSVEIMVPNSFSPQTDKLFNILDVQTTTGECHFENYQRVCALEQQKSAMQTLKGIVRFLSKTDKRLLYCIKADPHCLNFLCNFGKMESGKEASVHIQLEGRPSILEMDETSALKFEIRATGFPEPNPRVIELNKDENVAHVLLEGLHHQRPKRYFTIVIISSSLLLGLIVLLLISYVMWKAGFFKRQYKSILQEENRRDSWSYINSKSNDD
Chain of α4β1 (P05556 21-798): as the sequence (P05556 21-798) above
Description: A direct binding assay may also be employed to quantitate the inhibitory activity of the compounds. In this assay, a VCAM-IgG fusion protein containing the first two immunoglobulin domains of VCAM (D1D2) attached above the hinge region of an IgG1 molecule (“VCAM 2D-IgG”), is conjugated to a marker enzyme, such as alkaline phosphatase (“AP”). […] The conjugation of that fusion to a marker enzyme is achieved by cross-linking methods well-known in the art.
The VCAM-IgG enzyme conjugate is then placed in the wells of a multi-well filtration plate, such as that contained in the Millipore Multiscreen Assay System (Millipore Corp., Bedford, Mass.). Varying concentrations of the test inhibitory compound are then added to the wells followed by addition of VLA-4-expressing cells. The cells, compound and VCAM-IgG enzyme conjugate are mixed together and allowed to incubate at room temperature. Following incubation, the wells are vacuum drained, leaving behind the cells and any bound VCAM. Quantitation of bound VCAM is determined by adding an appropriate calorimetric substrate for the enzyme conjugated to VCAM-IgG and determining the amount of reaction product. Decreased reaction product indicates increased binding inhibitory activity.
Samples were also evaluated for function using the VCAM-Ig direct binding assay. Details for the construction of the VCAM-Ig animal cell expression vector, the generation of a Chinese hamster ovary (CHO) cell line expressing VCAM-Ig, conjugation of the VCAM-Ig to alkaline phosphatase, and the development of a direct binding assay for characterizing α4β1 and α4β7 binding to VCAM-Ig were as previously described (see Lobb, R. R., et al. (1995) Cell Adhes. Commun. 3:385–397).
For these studies, a series of compounds based on compound E containing 0.35, 2, 5, 20, 30, and 50 kDa-mPEG was synthesized and tested for binding to α4β1 on Jurkat cells with VCAM-Ig as a reporter (see methods).

[4] = target: α1β1 (Homo sapiens, UniProt P05556+P56199); test: α1β1/collagen IV cell adhesion assay (K562 transfected with human α1-integrin chain); format: cell-based; settings: adhesion format, 1 mM MnCl2
Chain of α1β1 (P56199 29-1179): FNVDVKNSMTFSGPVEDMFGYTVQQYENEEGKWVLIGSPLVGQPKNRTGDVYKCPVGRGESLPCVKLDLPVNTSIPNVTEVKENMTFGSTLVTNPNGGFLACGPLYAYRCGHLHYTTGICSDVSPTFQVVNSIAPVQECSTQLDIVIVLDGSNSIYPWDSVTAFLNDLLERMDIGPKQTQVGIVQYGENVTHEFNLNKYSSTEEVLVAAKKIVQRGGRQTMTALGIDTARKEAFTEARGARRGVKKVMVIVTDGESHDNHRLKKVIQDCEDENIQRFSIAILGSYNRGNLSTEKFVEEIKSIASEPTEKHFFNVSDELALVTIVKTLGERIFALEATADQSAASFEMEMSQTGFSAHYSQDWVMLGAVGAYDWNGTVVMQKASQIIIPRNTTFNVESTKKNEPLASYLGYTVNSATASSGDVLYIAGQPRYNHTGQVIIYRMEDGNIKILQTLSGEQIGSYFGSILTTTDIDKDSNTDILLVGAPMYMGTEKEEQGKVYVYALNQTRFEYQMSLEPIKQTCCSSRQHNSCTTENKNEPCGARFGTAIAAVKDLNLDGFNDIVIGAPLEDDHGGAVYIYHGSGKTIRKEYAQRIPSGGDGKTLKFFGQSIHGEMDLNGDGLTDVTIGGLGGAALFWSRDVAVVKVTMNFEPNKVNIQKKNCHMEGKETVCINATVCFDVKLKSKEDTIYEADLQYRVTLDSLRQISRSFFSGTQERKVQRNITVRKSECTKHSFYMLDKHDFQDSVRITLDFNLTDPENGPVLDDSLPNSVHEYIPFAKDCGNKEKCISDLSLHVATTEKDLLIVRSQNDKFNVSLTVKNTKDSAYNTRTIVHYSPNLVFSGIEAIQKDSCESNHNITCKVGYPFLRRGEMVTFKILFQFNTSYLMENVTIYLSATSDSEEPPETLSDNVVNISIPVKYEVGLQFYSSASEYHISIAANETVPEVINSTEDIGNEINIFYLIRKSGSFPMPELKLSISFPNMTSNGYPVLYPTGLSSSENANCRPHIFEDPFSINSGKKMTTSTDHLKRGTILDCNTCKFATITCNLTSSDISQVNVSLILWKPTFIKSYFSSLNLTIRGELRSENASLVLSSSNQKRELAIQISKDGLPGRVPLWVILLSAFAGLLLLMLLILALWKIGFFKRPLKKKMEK
Chain of α1β1 (P05556 21-798): as the sequence (P05556 21-798) above
Procedure: as §1, §2

[5] = tested on: EAE; test: Rat EAE model induced with myelin basic protein peptide; format: in vivo; settings: daily 30 mg/kg s.c.
[6] = tested on: lymphocyte count; test: Lymphocyte counts following inhibitor treatment (lymphocytosis); format: in vivo, rat; settings: 30 mg/kg s.c., single dose
Procedure: Female Lewis rats were injected with a single dose of either compound H (1 mg/kg, s.c in PBS), or compound R (30 mg/kg, s.c., in TRIS/lactose) or with their respective vehicles at time 0. At each timepoint, 0.3 mL blood from triplicate animals was drawn from the jugular vein without anesthesia and collected into Capiject purple-top microtainer tubes containing EDTA (Terumo Medical Corporation #T-MQK). […] samples were analyzed for lymphocyte count using an Abbott CellDyn 3500 cell analyzer. Blood samples from the compound H-treated animals were drawn at 4 hours, 8 hours, 12 hours, and on days 1, 2, 3, 4, 5, 6, 7, 8, and 9 and for the compound R-treated animals after 2, 6, 24, and 48 h.
Administration of compounds R and H to rats produced an α4β1-integrin dependent lymphocytosis that was sustained as long as sufficient concentrations of the inhibitors were maintained in circulation. From previous studies >90% of α4β1 receptors are estimated to be occupied to maintain lymphocytosis and therefore a target concentration of greater than or equal to 10 ng/mL compound needs to be maintained (see Leone, D. R., et al. (2003) J. Pharmacol. Exp. Ther. 305:1150–1162). […] A 2–3 fold increase in lymphocyte levels was observed. […] Elevated lymphocyte levels were maintained for 6 days. By day 9 lymphocyte levels had returned to normal. […]

half-life ([1]; iv): 2.5 h | bioavailability ([1]; sc): 21% | IC50 [2]: 5000 nM | IC50 ([3]; DBA IC50 100% rat plasma, 100% rat plasma): 13 nM | IC50 ([3]; DBA IC50 Ca2+Mg2+, Ca2+Mg2+): 2 nM | IC50 ([3]; DBA IC50 Mn2+, Mn2+): 1.2 nM | IC50 [4]: > 10000 nM
SMILES: Cc1ccccc1NC(=O)Nc1ccc(CC(=O)N(C)[C@@H](CC(C)C)C(=O)NCC[C@H](NC(=O)C2CCCN2S(=O)(=O)c2ccccc2)C(=O)O)cc1 (stereo partly drawn) [Compound B, 2S-[(1-benzenesulfonyl-pyrrolidine-2S-carbonyl)-amino]-4-[4-methyl-2S-(methyl-{2-[4-(3-o-tolyl-ureido)-phenyl]-acetyl}-amino)-pentanoylamino]-butyric acid]

SMILES: Cc1ccccc1NC(=O)Nc1ccc(CC(=O)N(C)[C@@H](CC(C)C)C(=O)NCC[C@H](NC(=O)[C@@H]2CCCN2S(=O)(=O)c2cc(Cl)cc(Cl)c2)C(=O)O)cc1 [Compound R, 2S-{[1-(3,5-dichloro-benzenesulfonyl)-pyrrolidine-2S-carbonyl]-amino}-4-[4-methyl-2S-(methyl-{2-[4-(3-o-tolyl-ureido)-phenyl]-acetyl}-amino)-pentanoylamino]-butyric acid]
mean paralytic score reached [5]: 3.0 | AUC ([1]; iv, 1 mg/kg): 2300 ng·h/mL | Cmax ([1]; iv, 1 mg/kg): 13100 ng/mL | Tmax ([1]; iv, 1 mg/kg): 0 h | Vd ([1]; iv, 1 mg/kg): 0.168 L/kg | clearance ([1]; iv, 1 mg/kg): 7.1 mL/min/kg | half-life ([1]; iv, 1 mg/kg): 1.1 h | AUC ([1]; sc, 10 mg/kg): 6100 ng·h/mL | CL ([1]; sc, 10 mg/kg): 27.17 mL/min/kg | Cmax ([1]; sc, 10 mg/kg): 780 ng/mL | Tmax ([1]; sc, 10 mg/kg): 0.5 h | bioavailability ([1]; sc, 10 mg/kg): 20% | half-life ([1]; sc, 10 mg/kg): 2.7 h | time >100 ng/mL blood levels were maintained ([1]; sc, 10 mg/kg): 12 h | day by which lymphocyte levels returned to normal [6]: ≤ 2 days | duration of lymphocytosis [6]: one
